According to patent US10195185B2, “3-(1H-imidazo[4,5-C]pyridin-2-yl)-1H-pyrazolo[4,3-B]pyridines and therapeutic uses thereof” (Samumed, LLC, priority 2015, dated 2019):

Tested on: Primary human fibroblasts derived from IPF patients (LL29 cells) treated with TGF-β1
Test: Inhibition of the fibrotic process: αSMA staining in TGF-β1 treated fibroblasts
Format: cell-based
Settings: Fibroblast, 96 h, LL29 fibroblasts treated with TGF-β1, 4 days; for inhibition at 10 µM: read-out: percent inhibition in brackets beside EC50 >10 μM
Description: Representative compounds were screened using primary human fibroblasts (derived from IPF patients) treated with TGF-β1 to determine their ability to inhibit the fibrotic process.
Primary human fibroblasts derived from IPF patients (LL29 cells) [^1Xiaoqiu Liu, et. al., “Fibrotic Lung Fibroblasts Show Blunted Inhibition by cAMP Due to Deficient cAMP Response Element-Binding Protein Phosphorylation”, Journal of Pharmacology and Experimental Therapeutics (2005), 315(2), 678-687; ^2Watts, K. L., et. al., “RhoA signaling modulates cyclin D1 expression in human lung fibroblasts; implications for idiopathic pulmonary fibrosis”, Respiratory Research (2006), 7(1), 88] were obtained from American Type Culture Collection (ATCC) and expanded in F12 medium supplemented with 15% Fetal Bovine Serum and Penicillin/Streptomycin.
Each compound was dissolved in DMSO as a 10 mM stock and used to prepare compound source plates. Serial dilution (1:2, 11-point dose-response curves from 10 μM to 1.87 nM) and compound transfer was performed using the ECHO 550 (Labcyte, Sunnyvale, Calif.) into 384-well clear bottom assay plates (Greiner Bio-One) with appropriate DMSO backfill for a final DMSO concentration of 0.1%. LL29 cells are plated at 1,500 cells/well in 80 μL/well F12 medium supplemented with 1% Fetal Bovine Serum. One hour after addition of the cells, TGF-β1 (Peprotech; 20 ng/mL) was added to the plates to induce fibrosis (ref. 1 and 2 above). Wells treated with TGF-β1 and containing DMSO were used as controls. Cells were incubated at 37° C. and 5% CO2 for 4 days. Following incubation for 4 days, SYTOX green nucleic acid stain (Life Technologies [Thermo Fisher Scientific]) was added to the wells at a final concentration of 1 μM and incubated at room temperature for 30 min. Cells were then fixed using 4% formaldehyde (Electron Microscopy Sciences), washed 3 times with PBS followed by blocking and permeabilization using 3% Bovine Serum Albumin (BSA; Sigma) and 0.3% Triton X-100 (Sigma) in PBS. Cells were then stained with antibody specific to α-smooth muscle actin (αSMA; Abcam) (ref. 1 and 2 above) in 3% Bovine Serum Albumin (BSA; Sigma) and 0.3% Triton X-100 (Sigma) in PBS, and incubated overnight at 4° C. Cells were then washed 3 times with PBS, followed by incubation with Alexa Flor-647 conjugated secondary antibody (Life Technologies [Thermo Fisher Scientific]) and DAPI at room temperature for 1 hour. Cells were then washed 3 times with PBS and plates were sealed for imaging. αSMA staining was imaged by excitation at 630 nm and emission at 665 nm and quantified using the Compartmental Analysis program on the CellInsight CX5 (Thermo Scientific). Dead or apoptotic cells were excluded from analysis based on positive SYTOX green staining. % of total cells positive for αSMA were counted in each well and normalized to the average of 11 wells treated with TGF-β1 on the same plate using Dotmatics' Studies Software. The normalized averages (fold change over untreated) of 3 replicate wells for each compound concentration were used to create dose-responses curves and EC50 values were calculated using non-linear regression curve fit in the Dotmatics' Studies Software. For EC50 of >10 μM, the percent inhibition at 10 μM is provided.

## O=C(Nc1cncc(-c2ccc3[nH]nc(-c4nc5c(-c6ccccn6)nccc5[nH]4)c3n2)c1)c1ccccc1 [Compound 151, N-(5-(3-(4-(Pyridin-2-yl)-1H-imidazo[4,5-c]pyridin-2-yl)-1H-pyrazolo[4,3-b]pyridin-5-yl)pyridin-3-yl)benzamide]
  EC50: > 10 µM
  inhibition at 10 µM: 0%

## Cn1cc(-c2ccc3[nH]nc(-c4nc5c(N6CCCCC6)nccc5[nH]4)c3n2)c(CO)n1 [Compound 1133, (1-Methyl-4-(3-(4-(piperidin-1-yl)-1H-imidazo[4,5-c]pyridin-2-yl)-1H-pyrazolo [4,3-b]pyridin-5-yl)-1H-pyrazol-3-yl)methanol]
  EC50: 1.06 µM

## Fc1ccccc1-c1nccc2[nH]c(-c3n[nH]c4ccc(-c5ccccn5)nc34)nc12 [Compound 84, 3-(4-(2-Fluorophenyl)-1H-imidazo[4,5-c]pyridin-2-yl)-5-(pyridin-2-yl)-1H-pyrazolo[4,3-b]pyridine]
  EC50: > 10 µM
  inhibition at 10 µM: 18.1%

## Cc1ccc(-c2nccc3[nH]c(-c4n[nH]c5ccc(-c6cncc(OC7CCCCC7)c6)nc45)nc23)s1 [Compound 735, 5-(5-(Cyclohexyloxy)pyridin-3-yl)-3-(4-(5-methylthiophen-2-yl)-1H-imidazo[4,5-c]pyridin-2-yl)-1H-pyrazolo[4,3-b]pyridine]
  EC50: 0.958 µM

## c1cc2[nH]c(-c3n[nH]c4ccc(-c5cncc(OC6CCNCC6)c5)nc34)nc2cn1 [Compound 656, 3-(1H-Imidazo[4,5-c]pyridin-2-yl)-5-(5-(piperidin-4-yloxy)pyridin-3-yl)-1H-pyrazolo[4,3-b]pyridine]
  EC50: 3.33 µM

## CN(C)CCNc1cc(F)cc(-c2nccc3[nH]c(-c4n[nH]c5ccc(-c6cncc(OCCN7CCCC7)c6)nc45)nc23)c1 [Compound 786, N^1-(3-Fluoro-5-(2-(5-(5-(2-(pyrrolidin-1-yl)ethoxy)pyridin-3-yl)-1H-pyrazolo[4,3-b]pyridin-3-yl)-1H-imidazo[4,5-c]pyridin-4-yl)-5phenyl)-N^2,N^2-dimethylethane-1,2-diamine]
  EC50: > 10 µM
  inhibition at 10 µM: 0%

## Fc1ccccc1-c1nccc2[nH]c(-c3n[nH]c4ccc(-c5cncc(CNCC6CCCC6)c5)nc34)nc12 [Compound 81, 1-Cyclopentyl-N-((5-(3-(4-(2-fluorophenyl)-1H-imidazo[4,5-c]pyridin-2-yl)-1H-pyrazolo[4,3-b]pyridin-5-yl)pyridin-3-yl)methyl)methanamine]
  EC50: 1.28 µM

## COc1cccc(-c2nccc3[nH]c(-c4n[nH]c5ccc(-c6cncc(NC(=O)CC(C)(C)C)c6)nc45)nc23)c1 [Compound 1006, N-(5-(3-(4-(3-methoxyphenyl)-1H-imidazo[4,5-c]pyridin-2-yl)-1H-pyrazolo [4,3-b]pyridin-5-yl)pyridin-3-yl)-3,3-dimethylbutanamide]
  EC50: 2.5 µM

## Oc1cncc(-c2ccc3[nH]nc(-c4nc5cnccc5[nH]4)c3n2)c1 [Compound 661, 5-(3-(1H-Imidazo[4,5-c]pyridin-2-yl)-1H-pyrazolo[4,3-b]pyridin-5-yl) pyridin-3-ol]
  EC50: > 10 µM
  inhibition at 10 µM: 0%

## COc1cncc(-c2ccc3[nH]nc(-c4nc5c(-c6ccoc6)nccc5[nH]4)c3n2)c1 [Compound 692, 3-(4-(Furan-3-yl)-1H-imidazo[4,5-c]pyridin-2-yl)-5-(5-methoxypyridin-3-yl)-1H-pyrazolo[4,3-b]pyridine]
  EC50: 0.334 µM

## Cc1ncc(-c2ccc3[nH]nc(-c4nc5c(-c6ccoc6)nccc5[nH]4)c3n2)n1C [Compound 685, 5-(1,2-Dimethyl-1H-imidazol-5-yl)-3-(4-(furan-3-yl)-1H-imidazo[4,5-c]pyridin-2-yl)-1H-pyrazolo[4,3-b]pyridine]
  EC50: 5.3 µM

## c1cc2[nH]c(-c3n[nH]c4ccc(-c5cncc(CNCC6CCCC6)c5)nc34)nc2c(-c2ccoc2)n1 [Compound 333, 1-Cyclopentyl-N-((5-(3-(4-(furan-3-yl)-1H-imidazo[4,5-c]pyridin-2-yl)-1H-pyrazolo [4,3-b]pyridin-5-yl)pyridin-3-yl)methyl)methanamine]
  EC50: > 10 µM
  inhibition at 10 µM: 46.9%

## c1cc2[nH]c(-c3n[nH]c4ccc(-c5cn[nH]c5)nc34)nc2cn1 [Compound 651, 3-(1H-Imidazo[4,5-c]pyridin-2-yl)-5-(1H-pyrazol-4-yl)-1H-pyrazolo[4,3-b]pyridine]
  EC50: > 10 µM
  inhibition at 10 µM: 16.4%

## Cn1cc(-c2ccc3[nH]nc(-c4nc5c(-c6cccs6)nccc5[nH]4)c3n2)cn1 [Compound 700, 5-(1-Methyl-1H-pyrazol-4-yl)-3-(4-(thiophen-2-yl)-1H-imidazo[4,5-c]pyridin-2-yl)-1H-pyrazolo[4,3-b]pyridine]
  EC50: 0.224 µM

## c1cc2[nH]c(-c3n[nH]c4ccc(C5CCNCC5)nc34)nc2c(-c2ccc3c(c2)OCO3)n1 [Compound 1108, 3-(4-(Benzo[d][1,3]dioxol-5-yl)-1H-imidazo[4,5-c]pyridin-2-yl)-5-(piperidin-4-yl)-1H-pyrazolo[4,3-b]pyridine]
  EC50: > 10 µM
  inhibition at 10 µM: 43.7%

## O=C(Nc1cncc(-c2ccc3[nH]nc(-c4nc5c(N6CCCCC6)nccc5[nH]4)c3n2)c1)C1CC1 [Compound 188, N-(5-(3-(4-(Piperidin-1-yl)-1H-imidazo[4,5-c]pyridin-2-yl)-1H-pyrazolo [4,3-b]pyridin-5-yl)pyridin-3-yl)cyclopropanecarboxamide]
  EC50: > 10 µM
  inhibition at 10 µM: 0%

## CC(C)(C)CC(=O)Nc1cncc(-c2ccc3[nH]nc(-c4nc5c(-c6ccccc6F)nccc5[nH]4)c3n2)c1 [Compound 72, N-(5-(3-(4-(2-fluorophenyl)-1H-imidazo[4,5-c]pyridin-2-yl)-1H-pyrazolo [4,3-b]pyridin-5-yl)pyridin-3-yl)-3,3-dimethylbutanamide]
  EC50: > 10 µM
  inhibition at 10 µM: 0%

## O=C(Cc1ccccc1)Nc1cncc(-c2ccc3[nH]nc(-c4nc5cnccc5[nH]4)c3n2)c1 [Compound 262, N-(5-(3-(1H-imidazo[4,5-c]pyridin-2-yl)-1H-pyrazolo[4,3-b]pyridin-5-yl)pyridin-3-yl)-2-phenylacetamide]
  EC50: > 10 µM
  inhibition at 10 µM: 0%

## c1cc(-c2ccc3[nH]nc(-c4nc5c(-c6ccncc6)nccc5[nH]4)c3n2)ccn1 [Compound 130, 5-(pyridin-4-yl)-3-(4-(pyridin-4-yl)-1H-imidazo[4,5-c]pyridin-2-yl)-1H-pyrazolo[4,3-b]pyridine]
  EC50: > 10 µM
  inhibition at 10 µM: 15.3%

## c1ccc(CNCc2cncc(-c3ccc4[nH]nc(-c5nc6c(-c7ccsc7)nccc6[nH]5)c4n3)c2)cc1 [Compound 304, N-Benzyl-1-(5-(3-(4-(thiophen-3-yl)-1H-imidazo[4,5-c]pyridin-2-yl)-1H-pyrazolo [4,3-b]pyridin-5-yl)pyridin-3-yl)methanamine]
  EC50: 6.56 µM

## CN1CCN(c2nccc3[nH]c(-c4n[nH]c5ccc(-c6cncnc6)nc45)nc23)CC1 [Compound 251, 3-(4-(4-Methylpiperazin-1-yl)-1H-imidazo[4,5-c]pyridin-2-yl)-5-(pyrimidin-5-yl)-1H-pyrazolo[4,3-b]pyridine]
  EC50: > 10 µM
  inhibition at 10 µM: 17.7%

## Cn1cc(-c2ccc3[nH]nc(-c4nc5c(-c6ccc7c(c6)OCO7)nccc5[nH]4)c3n2)c(CO)n1 [Compound 1151, (4-(3-(4-(Benzo[d][1,3]dioxol-5-yl)-1H-imidazo[4,5-c]pyridin-2-yl)-1H-pyrazolo [4,3-b]pyridin-5-yl)-1-methyl-1H-pyrazol-3-yl)methanol]
  EC50: > 10 µM
  inhibition at 10 µM: 0%
